Positions count from the first letter of the chain named.
Columns and labels:
[1] = target: T1, XtTPC3 (TPC3 from Xenopus tropicalis) (Xenopus tropicalis, UniProt A0A6I8S6D1, D511C); assay: two-electrode voltage clamp, Cys-accessibility (activation rate); assay type: cell-based; conditions: covalent at introduced Cys511; 0.5 mM MTSES in ND-96, pH 7.4, room temperature; +135 mV pulses; PI(3,4)P2 present (after long depolarization); Xenopus oocytes
T1 construct: gene LOC100495031; full-length cDNA in pGEMHE, Xenopus laevis oocytes (cRNA); pCXN2 in HEK293T for gating charges; homodimer
T1 sequence (A0A6I8S6D1 1-779 D511C): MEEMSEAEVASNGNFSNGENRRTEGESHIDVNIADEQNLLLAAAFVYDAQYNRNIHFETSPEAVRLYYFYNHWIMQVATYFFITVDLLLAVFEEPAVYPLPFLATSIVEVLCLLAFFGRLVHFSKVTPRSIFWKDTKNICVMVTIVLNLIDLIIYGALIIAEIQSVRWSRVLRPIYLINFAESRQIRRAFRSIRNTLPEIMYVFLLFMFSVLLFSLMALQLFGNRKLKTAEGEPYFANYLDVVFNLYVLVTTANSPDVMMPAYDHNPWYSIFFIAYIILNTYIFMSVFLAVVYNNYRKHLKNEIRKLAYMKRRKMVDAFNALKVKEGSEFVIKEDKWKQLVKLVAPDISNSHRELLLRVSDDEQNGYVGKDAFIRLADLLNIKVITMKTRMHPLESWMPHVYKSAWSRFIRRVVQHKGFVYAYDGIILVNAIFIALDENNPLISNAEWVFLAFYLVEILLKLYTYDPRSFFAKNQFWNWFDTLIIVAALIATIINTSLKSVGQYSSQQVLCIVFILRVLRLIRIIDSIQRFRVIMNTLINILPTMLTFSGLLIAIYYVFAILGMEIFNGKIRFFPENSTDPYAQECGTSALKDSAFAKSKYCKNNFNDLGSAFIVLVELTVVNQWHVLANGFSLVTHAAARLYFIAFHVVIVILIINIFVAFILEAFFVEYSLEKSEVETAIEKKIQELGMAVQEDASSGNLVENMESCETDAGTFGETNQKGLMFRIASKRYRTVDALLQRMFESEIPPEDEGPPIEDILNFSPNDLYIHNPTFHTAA

[2] = target: T2, XtTPC3 (TPC3 from Xenopus tropicalis) (Xenopus tropicalis, UniProt A0A6I8S6D1, R187Q/D511C); assay: as above; assay type: cell-based; conditions: covalent at introduced Cys511; 0.5 mM MTSES in ND-96, pH 7.4, room temperature; +135 mV pulses; PI(3,4)P2 present (after long depolarization); Xenopus oocytes
T2 construct: gene LOC100495031; full-length cDNA in pGEMHE, Xenopus laevis oocytes (cRNA); pCXN2 in HEK293T for gating charges; homodimer
T2 sequence (A0A6I8S6D1 1-779 R187Q/D511C): T1 sequence (A0A6I8S6D1 1-779 D511C) with R187Q

- MTSES-modification rate [1]: 0.043 ± 0.014 s⁻¹
- MTSES-modification rate [2]: 0.011 ± 0.005 s⁻¹
SMILES: CS(=O)(=O)SCCS(=O)(=O)O [MTSES]

Source: paper PMC8665364, “Phosphoinositide regulates dynamic movement of the S4 voltage sensor in the second repeat in two-pore channel 3” (The Journal of Biological Chemistry, 2021)
